Data taken from PMC12156033, “N-Alkylamino Stilbene Compounds as Amyloid β Inhibitors for Alzheimer’s Disease Research” (Molecules, 2025).
“Also recorded” adds a separate entry of the source.

What was measured:
[1] = target: T1, soluble Aβ42 aggregates (sAβ) (Homo sapiens, UniProt P05067); assay: Fluorescence spectra of compounds with soluble Aβ42 aggregates; type: binding; settings: excitation 380 nm; compound 5.0 µM in PBS with soluble Aβ aggregates
T1 construct: commercial Aβ42 peptide (AnaSpec or GL Biochem); purchased AnaSpec or GL Biochem
T1 sequence (P05067 672-713 limits assumed): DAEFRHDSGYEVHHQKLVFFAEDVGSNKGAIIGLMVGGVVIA
Protocol: (§1) All fluorescence measurements were performed using a SpectraMax M2e plate reader (Molecular Devices, San Jose, CA, USA). The fluorescence spectra of the compounds’ solution (100 μL PBS, 5.0 µM) were recorded with excitation at 380 nm and an emission wavelength from 400 to 680 nm. To PBS solutions (100 μL) of the compounds (5.0 µM), various Aβ42 species were added, with final concentrations of 5.0 µM and 25.0 µM, and their fluorescence spectra (λmax of emission) were determined as described above.
(§2) Aβ42 powder was prepared by dissolving commercial Aβ42 peptide (AnaSpec or GL Biochem) in ammonium hydroxide solution (1%, v/v). The solution was then aliquoted out and lyophilized overnight. The resulting aliquoted powder was stored at −80 °C. Aβ42 monomers were generated by dissolving Aβ42 powder in 1,1,1,3,3,3-hexafluoro-2-propanol (HFIP, 1 mM) and incubating for 1 h at room temperature. The solution was then evaporated overnight and dried by vacuum centrifuge to result in monomeric films. Aβ42 fibrils were generated by dissolving the monomeric Aβ42 films in DMSO, diluting into the appropriate buffer, and incubating for 24 h at 37 °C with continuous agitation (final DMSO concentration was <2%). For the preparation of Aβ42 oligomers, the peptides were suspended in PBS buffer and incubated overnight at 4 °C.

[2] = Log D measurement octanol/PBS; type: physicochemical; settings: octanol / PBS pH 7.4, 10 μM, triplicate, ± SD
Protocol: The determination of log D values for N-alkylamino multifunctional compounds was performed using a slightly modified reported procedure. The compounds (final concentration 10 μM) were added to the premix suspension containing 0.5 mL octanol and 0.5 mL octanol-saturated PBS buffer (pH = 7.4). The resulting mixture was stirred vigorously for 5 min and centrifuged at 2000 rpm for 5 min. The octanol layer was separated from the PBS layer, and the fluorescence spectrum was recorded. The remaining 0.5 mL PBS layer was partitioned with 0.5 mL PBS-saturated octanol, and the octanol layer was separated after 5 min of vigorous shaking and centrifuging. The fluorescence spectrum of the octanol layer was recorded. The log D value was calculated based on the fluorescence intensity ratio for the two octanol layers. Each experiment was completed in triplicate, and the error represents the standard deviation for the average log D values.

[3] = Fluorescence spectra of the compounds alone in PBS; type: physicochemical; settings: excitation 380 nm; compound 5.0 µM in PBS
Protocol: as §1

[4] = target: T2, amyloid plaques in 5xFAD mice brain sections (Homo sapiens, UniProt P05067); assay: Histological staining of 5xFAD mice brain sections, colocalization with HJ3.4 antibody; type: binding, mouse; settings: 11-month-old 5xFAD mice brain sections, compound 25 μM, HJ3.4 1 μg/mL
T2 construct: the amyloid beta (Aβ) peptide that makes up amyloid plaques; tissue Jackson Laboratories; host or cells: brain sections from 11-month-old 5xFAD transgenic mice (Tg6799 line)
T2 sequence (P05067 672-713 limits assumed): as above
Text: To further investigate the affinity of the developed compounds toward various Aβ aggregates in situ, the intrinsic fluorescence properties of the compounds were employed for their ability to stain insoluble amyloid plaques. For these studies, brain sections from 11-month-old 5xFAD transgenic mice, which rapidly develop severe amyloid pathology, were co-stained with stilbenes and HJ3.4 antibody. HJ3.4 is an anti-amyloid antibody that binds to the N-terminal region of the Aβ peptide, thereby targeting both soluble and insoluble amyloid species. To evaluate the Aβ binding specificity of the compounds in vitro, brain sections from 11-month-old 5xFAD mice were washed with PBS (3 × 5 min) and blocked with bovine serum albumin (2% w/v BSA in PBS, pH 7.4, 10 min). Then, the sections were incubated with 25 μM of multifunctional compounds and sequentially stained with HJ3.4 antibody (Professor David Holtzman, 1 μg/mL) for 30 min. The brain sections were treated with 2% w/v BSA-PBS again for 4 min to remove any compounds or antibodies that were non-specifically binding to the tissue. Finally, the sections were washed with PBS (3 × 2 min) and DI water (2 min) and mounted with non-fluorescent mounting media (Vectashield). Colocalization analysis and determination of Pearson’s correlation coefficient were performed with the imaging software Fiji (ImageJ 1.52p). Mouse brains were harvested in compliance with the Institutional Animal Care and Use Committee of the University of Illinois at Urbana-Champaign (IACUC protocol #22094).

[5] = Alamar blue cytotoxicity assay; type: cell-based, mouse; settings: mouse, Neuro2A (N2A) neuroblastoma cells, highest tested concentration (20 μM), 40 h, normalized to DMSO-only control, read-out: cell viability
Protocol: (§3) Mouse neuroblastoma Neuro2A (N2A) cell lines were purchased from the American Type Culture Collection (ATCC), Manassas, VA, USA. Cells were grown in DMEM/10% FBS, which is the regular growth media for N2A cells, in a humidified atmosphere with 5% CO2 at 37 °C. N2A cells were seeded in a clear 96-well plate (2.5 × 10^4/well) with DMEM/10% FBS. The media was changed to DMEM/N-2 media 24 h later. After 1 h, the treatment reagents were added. Owing to the poor solubility of compounds in the media, the final amount of DMSO used was 1% (v/v). After an additional incubation of 40 h, Alamar Blue solution was added to each well, and the cells were incubated for 90 min at 37 °C. Fluorescence intensity was measured at 590 nm (excitation wavelength = 560 nm).
(§4) The Alamar Blue assay was carried out as described, with the following treatment reagents: 20 μM compounds, 10 μM compounds, 5 μM compounds, and 2 μM compounds.

Aβ42 fibrils = target: T3, Aβ42 fibrils (Homo sapiens, UniProt P05067); assay: Fluorescence spectra of compounds with Aβ42 fibrils; type: binding; settings: excitation 380 nm; compound 5.0 µM in PBS with Aβ fibrils
T3 construct: commercial Aβ42 peptide (AnaSpec or GL Biochem); purchased AnaSpec or GL Biochem
T3 sequence (P05067 672-713 limits assumed): as above
Protocol: as §1, §2

[6] = target: T4, Aβ aggregates (sAβ and Aβ fibrils) (Homo sapiens, UniProt P05067); assay: Fluorescence turn-on assay with Aβ aggregates; type: binding; settings: compound 5 μM in PBS pH 7.4
T4 construct: commercial Aβ42 peptide (AnaSpec or GL Biochem); purchased AnaSpec or GL Biochem
T4 sequence (P05067 672-713 limits assumed): as above
Protocol: A fluorescence turn-on assay was performed to interrogate the effect of structural differences on the fluorescence enhancement with Aβ aggregates. […] Increases in fluorescence intensity with different aggregates would be ideal for tools used in amyloid-based assays. […] Without the ortho-methoxy group on the EAG, there is greater fluorescence enhancement for Aβ fibrils over sAβ for L3 and L4. […] The larger fluorescence enhancement observed for L6 than L5 indicates the dimethylamine EDG/methoxy EAG pair has a greater TICT. The piperidine-EDG-containing L7 has only slightly higher turn-on with sAβ, which may be attributed to the ortho-methoxy group on the EAG. […] In this case, it appears that the methoxy on the EAG diminishes the overall fluorescence of the compound since L8 has greater baseline fluorescence and turn-on than L7. This is also the case for the morpholine-EDG-containing L9 and L10. The lack of a methoxy group on the L10 EAG, in conjunction with the oxygen heteroatom from the morpholine EDG, electronically favors turn-on with Aβ fibrils to a slight extent. […] Changing the EDG to a methyl piperazine, L11, increases baseline fluorescence and turn-on compared to L9. […] L11 and L12, both containing an N-methyl piperazine EDG, show similar turn-on with sAβ and fibrils, and the o-methoxy EAG of L11 increases overall baseline fluorescence compared to L12. […] The spectra for the remaining compounds can be found in the Supplementary Information (Figure S1). None of the three compounds with the highest fluorescence contained an o-methoxy group on the EAG.
All fluorescence measurements were performed using a SpectraMax M2e plate reader (Molecular Devices, San Jose, CA, USA). The fluorescence spectra of the compounds’ solution (100 μL PBS, 5.0 µM) were recorded with excitation at 380 nm and an emission wavelength from 400 to 680 nm. To PBS solutions (100 μL) of the compounds (5.0 µM), various Aβ42 species were added, with final concentrations of 5.0 µM and 25.0 µM, and their fluorescence spectra (λmax of emission) were determined as described above. […]

[7] = system: Cu-Aβ42 cytotoxicity on N2a cells; assay: N2a cell rescue from Cu-induced Aβ42 cytotoxicity (Alamar blue); type: cell-based, mouse; settings: [Aβ42] = [CuCl2] = 20 μM, compound 5 μM
Protocol: as §3
The Alamar Blue assay was carried out as described, with the following treatment reagents: 20 μM Aβ42 species, 5 μM compounds, and 20 μM CuCl2.

Aβ40 peptide = target: T5, Aβ40 peptide (Homo sapiens, UniProt P05067); assay: Aβ40 aggregation inhibition assay monitored by ThT fluorescence; type: biochemical; settings: 25 μM Aβ40, 5 μM ThT, 5 μM compound, 37 °C, 48 h
T5 construct: a peptide solution of 25 μM Aβ40 monomers (AnaSpec, Fremont, CA, USA) was prepared; purchased AnaSpec
T5 sequence (P05067 672-711 limits assumed): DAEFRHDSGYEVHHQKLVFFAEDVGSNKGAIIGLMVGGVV
Protocol: To investigate the effect of these compounds on amyloid aggregation, inhibition of aggregation assays were performed using the Aβ40 peptide. Aβ40 has been implicated in inducing oxidative stress and is physiologically the most common isoform of the amyloid peptide and is therefore a widely used isoform in amyloid assays. Aβ40 is also known to have slower aggregation kinetics than Aβ42, which is helpful for studying the inhibition of the early aggregation pathway. […] Thus, a lower RFU can be interpreted as inhibiting the fibrillization of amyloids. The rest of the compounds show appreciable inhibition of Aβ aggregation as found in the Supplementary Materials (Figure S2), except for L9, which contains the morpholine EDG and a methoxy group on the EAG (Figure 3). The addition of the more polar oxygen heteroatom may instead favor hydrogen bonding interactions within the aqueous media, thereby solvating the compound and reducing early interactions with soluble aggregates. Lastly, although L2 and L3 show similar amyloid inhibition, the L3 compound lacking the o-methoxy group begins inhibition at an earlier time. […] This procedure was established in a previous publication.

N2a cells = assay: Alamar blue cytotoxicity assay; type: cell-based, mouse; settings: among the cyclic amine EDG derivatives
Protocol: as §3, §4

soluble Aβ42 = soluble Aβ42 (Homo sapiens, UniProt P05067); assay: ThT control fluorescence turn-on assay with soluble Aβ42; type: binding; settings: [Aβ42] = 5 μM, em 485 nm, ex 435 nm
Chain of soluble Aβ42 (P05067 672-713 limits assumed): as the sequence (P05067 672-713 limits assumed) above
Protocol: Aβ42 and Aβ42 fibrils was used to control for soluble vs. insoluble amyloid.
text to prepare soluble and fibrillar Aβ42, the UV-vis absorbance was measured for the soluble
Aβ42 used in the control. In a cuvette, 100 μL o f [ A β42] = 20 μM. […]

Row | SMILES | Compound+sAβ λem (λmax of emission) [1] [nm] | logD [2] | Compound λem (λmax of emission) [3] [nm] | Pearson's coefficient (R) of colocalization with AF594-HJ3.4 [4] | viability at 40 h, 20 µM [5] [%] | Compound+Fibrils λem (λmax of emission) (Aβ42 fibrils) [nm] | fluorescence enhancement / turn-on with Aβ aggregates [6] | effect on Cu-stabilized Aβ42 / Aβ42-induced toxicity [7] | inhibition of Aβ40 aggregation (ThT RFU) (Aβ40 peptide) | cell viability (ranking in words) (N2a cells) | fluorescence turn-on (soluble Aβ42)
1 | CNc1ccc(/C=C/c2cc(CN3CCN(C)CCN(C)CC3)c(O)c(OC)c2)cc1 [Compound L2, (E)-2-((4,7-dimethyl-1,4,7-triazonan-1-yl)methyl)-6-methoxy-4-(4-(methylamino)styryl)phenol] | 440 | 1.48 ± 0.02 | 460 | 0.54 | 88 | 440 |  |  |  |  | 
2 | CN1CCN(C)CCN(Cc2cc(/C=C/c3ccc(N(C)C)cc3)ccc2O)CC1 [Compound L4, (E)-2-((4,7-dimethyl-1,4,7-triazonan-1-yl)methyl)-4-(4-(dimethylamino)styryl)phenol] | 435 | 1.44 ± 0.01 | 455 | 0.60 |  | 435 | greatest overall fluorescence enhancements | toxicity was exacerbated | greatest inhibition; also recorded: best inhibition |  | 
3 | CN1CCN(C)CCN(Cc2cc(/C=C/c3ccc(N4CCCCC4)cc3)ccc2O)CC1 [Compound L8, (E)-2-((4,7-dimethyl-1,4,7-triazonan-1-yl)methyl)-4-(4-(piperidin-1-yl)styryl)phenol] | 430 | 1.29 ± 0.01 | 460 | 0.68 |  | 430 | highest fluorescence turn-on; also recorded: greatest overall fluorescence enhancements | toxicity was exacerbated | best inhibition |  | 
4 | COc1cc(/C=C/c2ccc(N3CCOCC3)cc2)cc(CN2CCN(C)CCN(C)CC2)c1O [Compound L9, (E)-2-((4,7-dimethyl-1,4,7-triazonan-1-yl)methyl)-6-methoxy-4-(4-morpholinostyryl)phenol] | 455 | 0.93 ± 0.02 | 455 | 0.71 |  | 450 |  | inhibit both Cu-stabilized Aβ42- and Aβ42-induced toxicity; also recorded: rescue cells from Cu-Aβ42 cytotoxicity | least inhibition | best cell viability | 
5 | CN1CCN(C)CCN(Cc2cc(/C=C/c3ccc(N4CCN(C)CC4)cc3)ccc2O)CC1 [Compound L12, (E)-2-((4,7-dimethyl-1,4,7-triazonan-1-yl)methyl)-4-(4-(4-methylpiperazin-1-yl)styryl)phenol] | 430 | 0.81 ± 0.01 | 450 | 0.65 |  | 435 |  | rescue cells from Cu-Aβ42 cytotoxicity |  | best cell viability | 
6 | Cc1ccc2c(c1)sc(-c1ccc(N(C)C)cc1)[n+]2C [ThT, Thioflavin T] |  |  |  |  |  |  |  |  |  |  | negligible turn-on
